ChEMBL document CHEMBL4808180, “Identification of 2,2-Dimethylbutanoic Acid (HST5040), a Clinical Development Candidate for the Treatment of Propionic Acidemia and Methylmalonic Acidemia” (J Med Chem, 2021)

Tests used:
[1] = Reduction of propionyl-CoA in human hepatocytes derived from propionic acidemia patient pretreated for 30 mins followed by 13C-isoleucine addition and measured after 1 hr by MS/MS analysis; type: functional, cell-based; details: hepatocyte
[2] = Reduction of methylmalonyl-CoA in human hepatocytes derived from methylmalonic acidemia pretreated for 30 mins followed by 13C-isoleucine addition and measured after 1 hr by MS/MS analysis; type: functional, cell-based; details: hepatocyte
[3] = Reduction of propionyl carnitine in human hepatocytes derived from propionic acidemia patient pretreated for 30 mins followed by 13C-isoleucine addition and measured after 1 hr by MS/MS analysis; type: functional, cell-based; details: hepatocyte
[4] = Reduction of propionyl carnitine in human hepatocytes derived from methylmalonic acidemia patient at 30 uM pretreated for 30 mins followed by 13C-isoleucine addition and measured after 1 hr by MS/MS analysis relative to control; type: functional, Hepatocyte; parameters: scale not given: the % may be the effect or the level left; details: time 90 min, 1.5 h
[5] = Reduction of acetyl carnitine in human hepatocytes derived from methylmalonic acidemia patient pretreated for 30 mins followed by 13C-isoleucine addition and measured after 1 hr by MS/MS analysis; type: functional, cell-based; details: hepatocyte
[6] = Reduction of 2-Methylcitric acid in human hepatocytes derived from propionic acidemia patient pretreated for 30 mins followed by 13C-isoleucine addition and measured after 1 hr by MS/MS analysis; type: functional, cell-based; details: hepatocyte
[7] = Reduction of 2-Methylcitric acid in human hepatocytes derived from propionic acidemia patient at 30 uM pretreated for 30 mins followed by 13C-isoleucine addition and measured after 1 hr by MS/MS analysis relative to control; type: functional, Hepatocyte; parameters: scale not given: the % may be the effect or the level left; details: time 90 min, 1.5 h
[8] = Reduction of acetyl-CoA in human hepatocytes derived from propionic acidemia patient pretreated for 30 mins followed by 13C-isoleucine addition and measured after 1 hr by MS/MS analysis; type: functional, cell-based; details: hepatocyte
[9] = Reduction of acetyl-CoA in human hepatocytes derived from methylmalonic acidemia patient at 30 uM pretreated for 30 mins followed by 13C-isoleucine addition and measured after 1 hr by MS/MS analysis relative to control; type: functional, Hepatocyte; parameters: scale not given: the % may be the effect or the level left; details: time 90 min, 1.5 h
[10] = Reduction of acetyl-CoA in human hepatocytes pretreated for 30 mins followed by 13C-isoleucine addition and measured after 1 hr by MS/MS analysis; type: functional, Hepatocyte; parameters: scale not given: the % may be the effect or the level left; details: dose 30 µM, 0.5 h
[11] = molecular target: T1, Multidrug and toxin extrusion protein 2 (Homo sapiens, UniProt Q86VL8); assay: Inhibition of human MATE2K assessed as reduction in MATE2K-mediated metformin transport at 14900 uM relative to control
T1 sequence (Q86VL8 whole entry): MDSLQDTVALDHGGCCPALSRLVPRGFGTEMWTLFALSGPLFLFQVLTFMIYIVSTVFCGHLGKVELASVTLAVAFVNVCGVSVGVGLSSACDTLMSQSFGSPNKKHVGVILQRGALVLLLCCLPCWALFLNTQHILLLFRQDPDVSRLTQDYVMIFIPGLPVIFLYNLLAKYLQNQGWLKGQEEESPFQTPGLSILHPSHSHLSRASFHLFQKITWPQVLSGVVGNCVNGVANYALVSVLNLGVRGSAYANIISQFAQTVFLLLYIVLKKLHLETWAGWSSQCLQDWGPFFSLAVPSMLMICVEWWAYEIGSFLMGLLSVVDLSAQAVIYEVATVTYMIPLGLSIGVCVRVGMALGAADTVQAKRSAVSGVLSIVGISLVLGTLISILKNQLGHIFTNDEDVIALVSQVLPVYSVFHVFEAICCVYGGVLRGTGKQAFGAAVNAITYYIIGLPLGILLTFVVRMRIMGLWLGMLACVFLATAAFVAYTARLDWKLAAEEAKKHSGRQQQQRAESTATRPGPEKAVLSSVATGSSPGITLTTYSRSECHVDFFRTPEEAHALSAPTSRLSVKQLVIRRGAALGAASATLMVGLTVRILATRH

[12] = Cmax in CD1 mouse at 300 mg/kg, po; type: ADME, organism-based; parameters: route oral, dose 300 mg/kg; details: in vivo
[13] = Half life in CD1 mouse at 30 mg/kg, iv; type: ADME, organism-based; details: in vivo
[14] = Half life in CD1 mouse at 100 mg/kg, po; type: ADME, organism-based; details: in vivo
[15] = Volume of distribution of CD1 mouse at 30 mg/kg, iv; type: ADME, organism-based; details: in vivo
[16] = Clearance in CD1 mouse at 30 mg/kg, iv; type: ADME, organism-based; details: in vivo
[17] = Half life in Sprague-Dawley rat at 10 mg/kg, po; type: ADME, organism-based; details: in vivo
[18] = Volume of distribution in Sprague-Dawley rat at 10 mg/kg, iv; type: ADME, organism-based; details: in vivo
[19] = AUC (0 to infinity) in Sprague-Dawley rat at 10 mg/kg, iv; type: ADME, organism-based; parameters: route intravenous, time infinity, dose 10 mg/kg; details: in vivo
[20] = Oral bioavailability in Sprague-Dawley rat at 50 mg/kg; type: ADME, organism-based; details: in vivo
[21] = Half life in Sprague-Dawley rat plasma at 10 mg/kg, po using radiolabeled compound by quantitative whole-body autoradiography; type: ADME, organism-based; details: in vivo
[22] = Cmax in Gottingen minipig at 10 mg/kg, po using radiolabeled compound by quantitative whole-body autoradiography; type: ADME, organism-based, Sus scrofa domesticus; parameters: route oral, dose 10 mg/kg; details: pig, in vivo
[23] = Tmax in Gottingen minipig at 10 mg/kg, po using radiolabeled compound by quantitative whole-body autoradiography; type: ADME, organism-based, Sus scrofa domesticus; details: pig, in vivo
[24] = Drug excretion in Gottingen minipig urine at 10 mg/kg, po using radiolabeled compound by quantitative whole-body autoradiography; type: ADME, organism-based, Sus scrofa domesticus; details: pig, in vivo, 96 h
Hepatocyte = assay: Cytotoxicity against human hepatocytes assessed as reduction in cell viability using radiolabeled compound; type: cell-based
[25] = Drug metabolism in Sprague-Dawley rat plasma assessed as HST5040-carnitine metabolite formation at 10 mg/kg administered as single dose by LC/MS analysis; type: ADME, organism-based; details: in vivo
[26] = Drug metabolism in Sprague-Dawley rat urine assessed as HST5040-glycine metabolite formation at 10 mg/kg administered as single dose by LC/MS analysis; type: ADME, organism-based; details: in vivo
[27] = Drug metabolism in Sprague-Dawley rat feces assessed as HST5040-glucuronide metabolite formation at 10 mg/kg administered as single dose by LC/MS analysis; type: ADME, organism-based; details: in vivo
[28] = Drug metabolism in Sprague-Dawley rat feces assessed as HST5040-carnitine metabolite formation at 10 mg/kg administered as single dose by LC/MS analysis; type: ADME, organism-based; details: in vivo
[29] = Drug metabolism in Sprague-Dawley rat feces assessed as HST5040-glycine metabolite formation at 10 mg/kg administered as single dose by LC/MS analysis; type: ADME, organism-based; details: in vivo
[30] = Drug metabolism in Gottingen minipig urine assessed as HST5040-glucuronide metabolite formation at 10 mg/kg administered as single dose by LC/MS analysis; type: ADME, organism-based, Sus scrofa domesticus; details: pig, in vivo
[31] = Drug metabolism in Gottingen minipig urine assessed as HST5040-carnitine metabolite formation at 10 mg/kg administered as single dose by LC/MS analysis; type: ADME, organism-based, Sus scrofa domesticus; details: pig, in vivo
[32] = Drug metabolism in Gottingen minipig urine assessed as HST5040-glycine metabolite formation at 10 mg/kg administered as single dose by LC/MS analysis; type: ADME, organism-based, Sus scrofa domesticus; details: pig, in vivo
[33] = Drug metabolism in Gottingen minipig plasma assessed as HST5040-glucuronide metabolite formation at 10 mg/kg administered as single dose by LC/MS analysis; type: ADME, organism-based, Sus scrofa domesticus; details: pig, in vivo
Bile salt export pump = Bile salt export pump (Homo sapiens, UniProt O95342); assay: Inhibition of human BSEP assessed as reduction in BSEP-mediated taurocholate transport at 345 uM relative to control
Sequence of Bile salt export pump (O95342 whole entry): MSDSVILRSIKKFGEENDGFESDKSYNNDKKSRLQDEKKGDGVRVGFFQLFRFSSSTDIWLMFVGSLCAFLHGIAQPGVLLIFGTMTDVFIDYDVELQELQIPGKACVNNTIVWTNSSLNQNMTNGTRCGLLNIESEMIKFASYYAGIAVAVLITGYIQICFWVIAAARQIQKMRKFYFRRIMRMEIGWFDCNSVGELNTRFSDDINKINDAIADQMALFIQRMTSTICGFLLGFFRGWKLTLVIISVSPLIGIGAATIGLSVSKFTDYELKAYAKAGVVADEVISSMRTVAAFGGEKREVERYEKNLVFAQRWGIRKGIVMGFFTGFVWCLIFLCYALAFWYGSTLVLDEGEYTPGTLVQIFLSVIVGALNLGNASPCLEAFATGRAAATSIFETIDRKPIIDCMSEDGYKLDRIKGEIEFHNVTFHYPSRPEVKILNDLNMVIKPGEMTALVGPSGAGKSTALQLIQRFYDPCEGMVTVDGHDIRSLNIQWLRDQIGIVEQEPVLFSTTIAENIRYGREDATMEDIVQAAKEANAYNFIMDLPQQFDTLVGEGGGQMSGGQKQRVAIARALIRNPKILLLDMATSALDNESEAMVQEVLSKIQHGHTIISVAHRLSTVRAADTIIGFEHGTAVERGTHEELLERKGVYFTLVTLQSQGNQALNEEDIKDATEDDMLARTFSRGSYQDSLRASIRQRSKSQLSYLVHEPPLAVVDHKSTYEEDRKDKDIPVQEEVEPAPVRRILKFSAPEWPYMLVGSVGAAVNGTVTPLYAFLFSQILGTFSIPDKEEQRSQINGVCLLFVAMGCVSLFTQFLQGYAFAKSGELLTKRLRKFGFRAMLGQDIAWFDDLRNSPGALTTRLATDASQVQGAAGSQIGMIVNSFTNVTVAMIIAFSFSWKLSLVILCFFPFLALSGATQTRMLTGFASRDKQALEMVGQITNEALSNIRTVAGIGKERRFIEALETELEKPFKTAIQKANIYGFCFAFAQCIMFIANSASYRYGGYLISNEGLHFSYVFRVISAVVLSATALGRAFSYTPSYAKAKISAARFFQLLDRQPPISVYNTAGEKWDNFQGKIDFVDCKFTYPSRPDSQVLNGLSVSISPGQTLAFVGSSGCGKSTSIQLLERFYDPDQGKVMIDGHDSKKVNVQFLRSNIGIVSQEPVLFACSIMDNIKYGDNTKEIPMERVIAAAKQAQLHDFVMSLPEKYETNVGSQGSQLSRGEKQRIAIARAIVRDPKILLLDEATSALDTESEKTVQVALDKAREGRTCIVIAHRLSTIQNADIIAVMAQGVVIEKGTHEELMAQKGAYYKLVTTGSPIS

[34] = Induction of toxicity in minipig assessed as increase in serum albumin concentration at 300 mg/kg/day; type: organism-based, Sus scrofa domesticus; details: pig, in vivo

## CCC(C)(C)C(=O)O [DIMEBUTIC ACID]
[1]
  EC50: 940 nM
[2]
  EC50: 2000 nM
[3]
  EC50: 2600 nM
[4]
  Activity: -65.9%
[5]
  EC50: 4300 nM
[6]
  EC50: 1100 nM
[7]
  Activity: -78.6%
[8]
  EC50: 2300 nM
[9]
  Activity: 13.5%
[10]
  Activity: 20%
[11]
  inhibition (INH): Not Active
[12]
  Cmax: 465 µg/mL
[13]
  half-life: 0.831 h
[14]
  half-life: 1.09 h
[15]
  Vd: 0.469 L/kg
[16]
  clearance: 7.28 mL/min/kg
[17]
  half-life: 3.17 h
[18]
  Vd: 1.22 L/kg
[19]
  AUC(0-inf): 9670 ng·h/mL
[20]
  bioavailability: 68.3%
[21]
  t1/2: 2.4 h
[22]
  Cmax: 16.1 µg/mL
[23]
  Tmax: 0.5 h
[24]
  Drug excretion: 77.4%
Hepatocyte
  Activity: Non-Toxic
[25]
  Drug metabolism: Metabolite_Detected
[26]
  Drug metabolism: Metabolite_Detected
[27]
  Drug metabolism: Metabolite_Detected
[28]
  Drug metabolism: Metabolite_Detected
[29]
  Drug metabolism: Metabolite_Detected
[30]
  Drug metabolism: Metabolite_Detected
[31]
  Drug metabolism: Metabolite_Detected
[32]
  Drug metabolism: Metabolite_Detected
[33]
  Drug metabolism: Metabolite_Detected
Bile salt export pump
  inhibition (INH): Not Active
[34]
  Activity: Toxic
